Paper PMC5766898, “Eel Kisspeptins: Identification, Functional Activity, and Inhibition on both Pituitary LH and GnRH Receptor Expression” (Frontiers in Endocrinology, 2018)
Entries after “also recorded” stand apart in the source; their conditions may differ. Like-named read-outs stand apart in the source and are kept apart here. Each block holds one substance with its values, some of them ahead of it. Ends that are not written are not given here.

Legend:
type II gnrh-r = details: repeated injections, juvenile female Japanese quail; cited from earlier work
Description: (§1) This receptor is the one increased during experimental maturation in both female and male eels ([25]). To the best of our knowledge, only a single other study investigated the effect of kisspeptin on GnRH receptor in teleost. In female striped bass at dummy run phase (ovarian development is initiated but not completed), chronic administration in vivo of both Kp1(15) and Kp2(12) induces a decrease ...

[1] = test system: lhβ expression by eel pituitary cells; details: eel pituitary cells in primary culture; cited from earlier work
Description: In the eel, three Kiss receptor genes have been characterized, i.e., KissR-1, KissR-2, and KissR-3 ([19], [22]–[24]). Their expressions mainly occur in the brain, pituitary, and gonads ([19]).

[2] = test system: fshβ expression by eel pituitary cells; details: eel pituitary cells in primary culture; cited from earlier work
pituitary gnrh-r mRNAs = details: female striped bass at dummy run phase, chronic administration in vivo; cited from earlier work
Description: as §1

lh expression = details: cited from earlier work
Description: (§2) This paradoxical inhibitory effect contrasts with the general action of kisspeptin as an activator of puberty and reproduction, mostly at the brain level ([70]), but also directly on the pituitary [for reviews see Ref. ([71], [72])]. […] In contrast, in other studied teleosts, the action of kisspeptin is generally ...

FSH peptide secretion = details: striped bass; cited from earlier work
Description: as §2

FSH gene transcription = details: striped bass; cited from earlier work
Description: as §2

plasma LH levels = details: striped bass, im, cited from earlier work
Description: as §2

KissR-3 = details: cited from earlier work
Description: (§3) For clarity, the nomenclature of Pasquier et al ([19], [24]) for KissR will be used in the following paragraphs. In teleost models with two receptors, various studies have shown differential affinities of Kiss peptides toward homologous receptors.

human KissR-1 [3] = test system: human KissR-1; design: method as in PMID 19164475; details: CV-1 cells; cited from earlier work
rat KissR-1 = molecular target: T1, rat KissR-1 (Rattus norvegicus, UniProt Q924U1); assay: [Ca^2+]i response (Fluo-4 AM, FlexStation) in rat KissR-1-transfected CHO-K1 cells; format: cell-based; details: rat KissR-1 CHO-K1 cells, peak Fluo-4 fluorescence, 10^−12 to 10^−6 M, 37°C, four-parameter logistic, mean ± SEM from two independent experiments; for Emax: baseline normalized to 100%, 180 s recording
T1 construct: expressed in transfected cells
Description: CHO-K1 cells were cultured to semiconfluence in 12-well plates using Ham’s F12 medium supplemented with 10% fetal bovine serum and 1% antibiotic–antimycotic solution. Cells were transfected with different quantities of the recombinant plasmid, ranging from 3 to 5 µg, using Lipofectamine 2000 (Invitrogen, Cergy Pontoise, France) as previously described ([30]). Twenty-four hours after transfection, media were replaced by fresh F12 medium containing 1 mg/ml G418 (Geneticin; Life Technologies, Inc.). One week later, surviving cells were detached, diluted, and plated on 96-well plates at 0.7 cells/well. Monoclonal cell lines expressing rat KissR-1 (CHO-K1-rKissR-1) were followed daily by contrast phase microscopy. Seven independent monoclonal stable cell lines were obtained after a 3-week period of selection. By using qPCR, two cell lines were selected based on their expression levels being closest to physiological levels among all cell lines.
To compare the KissR-1 agonistic activities of eel Kp1(10), Kp2(10), Kp1(15), and Kp2(12), the level of [Ca^2+]i after stimulation of CHO-K1 cells stably expressing KissR-1 by these peptides was monitored by spectrofluorometry as previously described ([30], [31]) with slight modifications. Briefly, after 24 h in culture, cells were incubated for 1 h in a humidified incubator (37°C, 5% CO2) with 2 µM Fluo-4 acetoxymethyl ester (AM) calcium dye (Life Technologies, Saint Aubin, France) in Hank’s Buffer Saline Solution (HBSS; Life Technologies) buffered with 5 mM HEPES and supplemented with 2.5 mM probenecid (Sigma-Aldrich, Saint-Quentin Fallavier, France). Cells were washed twice with HBSS/HEPES/probenecid to remove Fluo-4 AM from the incubation medium and incubated in 150 µl of the same medium at 37°C for 15 min. Fluorescence was recorded using a Flexstation 3 fluorescence plate reader system (Molecular Devices, Saint-Grégoire, France) during 180 s with an excitation wavelength of 480 nm, an emission wavelength of 525 nm, and a cutoff filter of 515 nm. After 15 s recording in basal conditions, 50 µl of graded concentration (10^−12 to 10^−6 M) of different peptides (four-fold final concentration) was added to the incubation medium with the built-in eight-channel pipettor at a rate of 62 µl/s to assess their agonistic activity. After subtraction of mean fluorescence background from control wells without Fluo-4 AM, baseline was normalized to 100%, and fluorescence peak values were determined for each concentration of peptide. Potency (EC50) and efficacy (Emax) (Table 3) were determined with the Prism 6.0 software (GraphPad Software In., La Jolla, CA, USA) using a four-parameter logistic equation to fit peak fluorescence data.

KissR-2 = details: cited from earlier work
Description: as §3

human KissR-1 [4] = test system: human KissR-1; design: method as in PMID 18509165; details: COS-7 cells; cited from earlier work
[5] = test system: LH release by pituitary cells; details: cited from earlier work
Description: as §2

LH release = details: cited from earlier work
Description: as §2

[6] = test system: expression of LH by pituitary cells; details: goldfish pituitary cells, mixed sexes at late stages of sexual regression; cited from earlier work
Description: as §2

human KissR-1 [7] = test system: human KissR-1; design: method as in PMID 26047834; details: CHO cells; cited from earlier work
LH secretion = details: im injection, prepubertal and adult sea bass; Kp2(10) versus Kp1(10); cited from earlier work
Description: as §2

mouse KissR-1 = test system: mouse KissR-1; design: method as in PMID 26047834; details: CHO cells; cited from earlier work
FSH release = details: sea bass; cited from earlier work
Description: as §2

[8] = striped bass, COS-7 cells, Kp1(15) versus Kp2(12)
[9] = zebrafish, COS-7, CHO-K1, and HEK293 cells
[10] = pituitary cells from sexually mature female goldfish
[11] = pituitary cells from mature male sea bass

T1 sequence (Q924U1 whole entry): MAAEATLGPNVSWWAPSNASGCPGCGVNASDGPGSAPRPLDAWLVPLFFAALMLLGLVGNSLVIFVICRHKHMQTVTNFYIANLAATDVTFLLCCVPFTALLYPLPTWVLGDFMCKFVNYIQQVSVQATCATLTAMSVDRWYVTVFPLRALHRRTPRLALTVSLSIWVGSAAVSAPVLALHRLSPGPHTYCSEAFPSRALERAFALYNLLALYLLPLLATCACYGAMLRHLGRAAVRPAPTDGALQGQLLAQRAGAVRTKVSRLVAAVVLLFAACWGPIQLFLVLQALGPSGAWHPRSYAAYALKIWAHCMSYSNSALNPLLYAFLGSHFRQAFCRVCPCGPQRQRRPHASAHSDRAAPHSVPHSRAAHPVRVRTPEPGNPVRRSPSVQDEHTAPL

Substance: YNWNSFGLRF [human/lamprey Kp1(10), heterologous kisspeptin]
- effect on pituitary expression of type II gnrh-r (type II gnrh-r): upregulated pituitary expression of type II
- effect on lhβ expression, heterologous kisspeptins [1]: can inhibit lhβ expression; also recorded: specific in vitro inhibitory effect
- effect on fshβ expression, heterologous kisspeptins [2]: no effect on fshβ

Substance: QDVSSYNLNSFGLRY [striped bass Kp1(15), striped bass Kiss peptide]
- effect on pituitary gnrh-r mRNAs (pituitary gnrh-r mRNAs): induces a decrease of pituitary gnrh-r mRNAs
- effect on lh expression (lh expression; striped bass, in vitro): inhibitory effect on lh expression
- effect on FSH peptide secretion (FSH peptide secretion): stimulate FSH
- effect on FSH gene transcription (FSH gene transcription): stimulate FSH
- effect on plasma LH levels (plasma LH levels; gonadal recrudescence): could increase LH levels at gonadal recrudescence
- effect on plasma LH levels (plasma LH levels; overall): induces plasma LH levels in a stage-dependent manner
- effect on plasma LH levels (plasma LH levels; pubertal stage): no effect on LH at pubertal stage
- activation of KissR-3 (KissR-3; [8]): activate KissR-3 with the same potency

Substance: SKFNYNPFGLRF [zebrafish Kp2(12), zebrafish Kiss peptide]
- activation of human KissR-1 (human KissR-1 [3]): highly efficient
- potency for activating KissR-3 (KissR-3; zebrafish, CV-1 cells): higher potency for activating KissR-3

- Emax (rat KissR-1): 236 ± 8.4%
- EC50 (rat KissR-1): 8.5 ± 4.5 nM
Substance: YNWNSFGLRY-NH2 [Eel Kp1(10)]

- Emax (rat KissR-1): 256 ± 6.7%
- EC50 (rat KissR-1): 135 ± 18.9 nM
Substance: SKFNRNPFGLRF-NH2 [Eel Kp2(12)]

Substance: HQDMSSYNFNSFGLRY [chub mackerel Kp1(16), chub mackerel predicted mature peptide]
- activity on KissR-3 (KissR-3; chub mackerel, Kp1(16) versus Kp1(15)): more active than the shorter Kp1(15)

- Emax (rat KissR-1): 277 ± 5.3%
- EC50 (rat KissR-1): 11.8 ± 2 nM
Substance: ENFSSYNWNSFGLRY-NH2 [Eel Kp1(15)]

Substance: human Kp1(14): heterologous kisspeptin (DLPNYNWNSFGLRF; ends and bridges not checked; UniProt Q15726 108-121, looked up)
- effect on lhβ expression, heterologous kisspeptins [1]: can inhibit lhβ expression; also recorded: specific in vitro inhibitory effect
- effect on fshβ expression, heterologous kisspeptins [2]: no effect on fshβ

Substance: YNLNSFGLRY [zebrafish Kp1(10), heterologous kisspeptin]
- effect on lhβ expression, heterologous kisspeptins [1]: can inhibit lhβ expression; also recorded: specific in vitro inhibitory effect
- effect on fshβ expression, heterologous kisspeptins [2]: no effect on fshβ
- activation of KissR-3 (KissR-3; [9]): preferentially activated by Kp1(10)
- activation of KissR-2 (KissR-2; [9]): activated by both Kp1(10) and Kp2(10)
- activation of human KissR-1 (human KissR-1 [4]): highly efficient

Substance: FNYNPFGLRF [goldfish Kp2(10), homologous goldfish Kp2(10)]
- effect on LH release [5, 10]: inactive on LH release

Substance: SKFNFNPFGLRF [striped bass Kp2(12), striped bass Kiss peptide]
- effect on pituitary gnrh-r mRNAs (pituitary gnrh-r mRNAs): induces a decrease of pituitary gnrh-r mRNAs
- effect on FSH peptide secretion (FSH peptide secretion): stimulate FSH
- effect on LH release (LH release; striped bass, in vitro): stimulated LH release
- effect on FSH gene transcription (FSH gene transcription): stimulate FSH
- effect on plasma LH levels (plasma LH levels; gonadal recrudescence): could increase LH levels at gonadal recrudescence
- effect on plasma LH levels (plasma LH levels; overall): induces plasma LH levels in a stage-dependent manner
- activation of KissR-3 (KissR-3; [8]): activate KissR-3 with the same potency
- activation of KissR-2 (KissR-2; striped bass, COS-7 cells, Kp2(12) versus Kp1(15)): more efficiently activated

Substance: YNLNSFGLRY [goldfish Kp1(10), homologous goldfish Kp1(10)]
- effect on LH expression [6]: increases the release and expression of LH
- effect on LH release ([5]; goldfish pituitary cells, mixed sexes at late stages of sexual regression): increases the release and expression of LH
- effect on LH release [5, 10]: inactive on LH release

Substance: FNFNPFGLRF [sea bass Kp2(10), sea bass Kiss peptide]
- activation of human KissR-1 (human KissR-1 [7]): can efficiently activate human KissR-1
- potency in inducing LH secretion (LH secretion): significantly more potent than Kp1(10) in inducing LH secretion
- activation of mouse KissR-1 (mouse KissR-1): not able to induce any activation

Substance: FNYNPFGLRF [zebrafish Kp2(10), heterologous kisspeptin]
- activation of human KissR-1 (human KissR-1 [3]): highly efficient
- effect on lhβ expression, heterologous kisspeptins [1]: can inhibit lhβ expression; also recorded: specific in vitro inhibitory effect
- effect on fshβ expression, heterologous kisspeptins [2]: no effect on fshβ
- activation of KissR-2 (KissR-2; [9]): activated by both Kp1(10) and Kp2(10)

Substance: QNVAYYNLNSFGLRY [zebrafish Kp1(15), heterologous kisspeptin]
- activation of human KissR-1 (human KissR-1 [3]): highly efficient
- effect on lhβ expression, heterologous kisspeptins [1]: can inhibit lhβ expression; also recorded: specific in vitro inhibitory effect
- effect on fshβ expression, heterologous kisspeptins [2]: no effect on fshβ
- preference for KissR-2 (KissR-2; zebrafish, CV-1 cells): preference for KissR-2

- Emax (rat KissR-1): 260 ± 9.5%
- EC50 (rat KissR-1): 56.6 ± 27.7 nM
Substance: FNRNPFGLRF-NH2 [Eel Kp2(10)]

Substance: SKFNFNPFGLRF [sea bass Kp2(12), sea bass Kiss peptide]
- activation of human KissR-1 (human KissR-1 [7]): can efficiently activate human KissR-1
- effect on lh expression (lh expression; [11]): induces both lh expression and LH release
- effect on LH release (LH release; [11]): induces both lh expression and LH release
- in vitro FSH release (FSH release): can induce in vitro FSH release
- potency for activating KissR-3 (KissR-3; sea bass, CHO cells): higher potency for activating KissR-3

Substance: QDVSSYNLNSFGLRY [sea bass Kp1(15), sea bass Kiss peptide]
- activation of human KissR-1 (human KissR-1 [7]): can efficiently activate human KissR-1
- effect on lh expression (lh expression; [11]): no effect
- effect on LH release (LH release; [11]): no effect
- preference for KissR-2 (KissR-2; sea bass, CHO cells): preference for KissR-2

Substance: YNLNSFGLRY [sea bass Kp1(10), sea bass Kiss peptide]
- activation of human KissR-1 (human KissR-1 [7]): can efficiently activate human KissR-1
